# How the values were obtained:
# Experiment in all cases: relative viability (nuclei count vs DMSO), 5 days (fraction); higher = more cells survive
# [1] = test system: EKVX
# Method in brief: (§1)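 Relative viability equals treated-well nuclei counts divided by vehicle-well nuclei counts. Counts came from 4× images of lung cancer cell lines grown in 1536-well plates for 5 days after pin-tool dosing on the day after seeding. Dosing used one drug alone or a fixed anchor-drug dose plus five library-drug doses (not always all listed) in √10 steps, and values are medians of duplicate plates.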
# [2] = test system: ChaGo-K-1
# Method in brief: as §1
# [3] = test system: HCC-827
# Method in brief: as §1
# [4] = test system: NCI-H441
# Method in brief: as §1
# [5] = test system: NCI-H322M
# Method in brief: as §1
# [6] = test system: NCI-H1975
# Method in brief: as §1
# [7] = test system: ABC-1
# Method in brief: as §1
# [8] = test system: SK-MES-1
# Method in brief: as §1
# [9] = test system: NCI-H460
# Method in brief: as §1
# [10] = test system: NCI-H2085
# Method in brief: as §1
# [11] = test system: NCI-H2087
# Method in brief: as §1
# [12] = test system: COR-L 105
# Method in brief: as §1
# [13] = test system: NCI-H2342
# Method in brief: as §1
# [14] = test system: NCI-H1792
# Method in brief: as §1
# [15] = test system: HCC-366
# Method in brief: as §1
# [16] = test system: H3255
# Method in brief: as §1
# [17] = test system: NCI-H2009
# Method in brief: as §1
# [18] = test system: NCI-H2228
# Method in brief: as §1
# [19] = test system: NCI-H1355
# Method in brief: as §1
# [20] = test system: NCI-H1993
# Method in brief: as §1
# [21] = test system: EPLC-272H
# Method in brief: as §1
# [22] = test system: CAL-12T
# Method in brief: as §1
smiles,measurement,setting,value
Cc1cn(-c2cc(NC(=O)c3ccc(C)c(Nc4nccc(-c5cccnc5)n4)c3)cc(C(F)(F)F)c2)cn1 [Nilotinib] + O=C(c1cc(Cc2n[nH]c(=O)c3ccccc23)ccc1F)N1CCN(C(=O)C2CC2)CC1 [Olaparib] (partner 8 µM),relative viability,[1]; first compound 0.001 µM,0.735
same,relative viability,[1]; first compound 0.003162 µM,1.08
same,relative viability,[1]; first compound 0.01 µM,1.23
same,relative viability,[1]; first compound 0.03162 µM,0.834
same,relative viability,[1]; first compound 0.1 µM,1.07
same,relative viability,[2]; first compound 0.001 µM,0.419
same,relative viability,[2]; first compound 0.003162 µM,0.476
same,relative viability,[2]; first compound 0.01 µM,0.478
same,relative viability,[2]; first compound 0.03162 µM,0.464
same,relative viability,[2]; first compound 0.1 µM,0.412
same,relative viability,[3]; first compound 0.001 µM,0.637
same,relative viability,[3]; first compound 0.003162 µM,0.741
same,relative viability,[3]; first compound 0.03162 µM,0.49
same,relative viability,[3]; first compound 0.1 µM,0.689
same,relative viability,[4]; first compound 0.001 µM,0.419
same,relative viability,[4]; first compound 0.003162 µM,0.807
same,relative viability,[4]; first compound 0.01 µM,0.533
same,relative viability,[4]; first compound 0.03162 µM,0.431
same,relative viability,[4]; first compound 0.1 µM,0.534
same,relative viability,[5]; first compound 0.001 µM,0.737
same,relative viability,[5]; first compound 0.003162 µM,0.712
same,relative viability,[5]; first compound 0.01 µM,0.678
same,relative viability,[5]; first compound 0.03162 µM,0.556
same,relative viability,[5]; first compound 0.1 µM,0.818
same,relative viability,[6]; first compound 0.001 µM,0.553
same,relative viability,[6]; first compound 0.003162 µM,0.809
same,relative viability,[6]; first compound 0.01 µM,0.786
same,relative viability,[6]; first compound 0.03162 µM,0.491
same,relative viability,[6]; first compound 0.1 µM,0.63
same,relative viability,[7]; first compound 0.001 µM,0.671
same,relative viability,[7]; first compound 0.003162 µM,0.873
same,relative viability,[7]; first compound 0.01 µM,0.778
same,relative viability,[7]; first compound 0.03162 µM,0.828
same,relative viability,[7]; first compound 0.1 µM,0.673
same,relative viability,[8]; first compound 0.001 µM,0.611
same,relative viability,[8]; first compound 0.003162 µM,0.696
same,relative viability,[8]; first compound 0.01 µM,0.778
same,relative viability,[8]; first compound 0.03162 µM,0.573
same,relative viability,[8]; first compound 0.1 µM,0.432
same,relative viability,[9]; first compound 0.001 µM,0.318
same,relative viability,[9]; first compound 0.003162 µM,0.295
same,relative viability,[9]; first compound 0.01 µM,0.496
same,relative viability,[9]; first compound 0.03162 µM,0.27
same,relative viability,[9]; first compound 0.1 µM,0.34
same,relative viability,[10]; first compound 0.001 µM,0.747
same,relative viability,[10]; first compound 0.003162 µM,0.834
same,relative viability,[10]; first compound 0.01 µM,0.797
same,relative viability,[10]; first compound 0.03162 µM,0.889
same,relative viability,[10]; first compound 0.1 µM,0.684
same,relative viability,[11]; first compound 0.001 µM,0.529
same,relative viability,[11]; first compound 0.003162 µM,0.672
same,relative viability,[11]; first compound 0.01 µM,0.592
same,relative viability,[11]; first compound 0.03162 µM,0.552
same,relative viability,[11]; first compound 0.1 µM,0.514
same,relative viability,[12]; first compound 0.001 µM,0.629
same,relative viability,[12]; first compound 0.003162 µM,0.688
same,relative viability,[12]; first compound 0.01 µM,0.645
same,relative viability,[12]; first compound 0.03162 µM,0.636
same,relative viability,[12]; first compound 0.1 µM,1.09
same,relative viability,[13]; first compound 0.001 µM,0.399
same,relative viability,[13]; first compound 0.003162 µM,0.457
same,relative viability,[13]; first compound 0.01 µM,0.464
same,relative viability,[13]; first compound 0.03162 µM,0.338
same,relative viability,[13]; first compound 0.1 µM,0.418
same,relative viability,[14]; first compound 0.001 µM,0.312
same,relative viability,[14]; first compound 0.003162 µM,0.535
same,relative viability,[14]; first compound 0.01 µM,0.456
same,relative viability,[14]; first compound 0.03162 µM,0.258
same,relative viability,[14]; first compound 0.1 µM,0.319
same,relative viability,[15]; first compound 0.001 µM,0.272
same,relative viability,[15]; first compound 0.003162 µM,0.327
same,relative viability,[15]; first compound 0.01 µM,0.339
same,relative viability,[15]; first compound 0.03162 µM,0.281
same,relative viability,[15]; first compound 0.1 µM,0.281
same,relative viability,[16]; first compound 0.001 µM,0.533
same,relative viability,[16]; first compound 0.003162 µM,0.561
same,relative viability,[16]; first compound 0.01 µM,0.572
same,relative viability,[16]; first compound 0.03162 µM,0.474
same,relative viability,[16]; first compound 0.1 µM,0.501
same,relative viability,[17]; first compound 0.001 µM,0.588
same,relative viability,[17]; first compound 0.003162 µM,0.667
same,relative viability,[17]; first compound 0.01 µM,0.621
same,relative viability,[17]; first compound 0.03162 µM,0.599
same,relative viability,[17]; first compound 0.1 µM,0.9
same,relative viability,[18]; first compound 0.001 µM,0.459
same,relative viability,[18]; first compound 0.003162 µM,0.584
same,relative viability,[18]; first compound 0.01 µM,0.76
same,relative viability,[18]; first compound 0.03162 µM,0.384
same,relative viability,[18]; first compound 0.1 µM,0.835
same,relative viability,[19]; first compound 0.001 µM,0.748
same,relative viability,[19]; first compound 0.003162 µM,0.816
same,relative viability,[19]; first compound 0.01 µM,0.737
same,relative viability,[19]; first compound 0.03162 µM,0.785
same,relative viability,[19]; first compound 0.1 µM,0.763
same,relative viability,[20]; first compound 0.001 µM,0.957
same,relative viability,[20]; first compound 0.003162 µM,1.1
same,relative viability,[20]; first compound 0.01 µM,1.75
same,relative viability,[20]; first compound 0.03162 µM,1.01
same,relative viability,[20]; first compound 0.1 µM,1.23
same,relative viability,[21]; first compound 0.001 µM,0.605
same,relative viability,[21]; first compound 0.003162 µM,0.746
same,relative viability,[21]; first compound 0.01 µM,0.696
same,relative viability,[21]; first compound 0.03162 µM,0.448
same,relative viability,[21]; first compound 0.1 µM,0.513
same,relative viability,[22]; first compound 0.001 µM,0.648
same,relative viability,[22]; first compound 0.003162 µM,0.677
same,relative viability,[22]; first compound 0.01 µM,0.738
same,relative viability,[22]; first compound 0.03162 µM,0.67
same,relative viability,[22]; first compound 0.1 µM,0.793
